Source: patent US8673947B2, “Enhanced migraine treatments based on ghrelin mimetics” (Helsinn Therapeutics (U.S.), Inc., priority 2009, dated 2014)
Like-named read-outs stand apart in the source and are kept apart here.

Assays:
[1] = Imitrex tablets, cited from earlier work
[2] = Pharmacokinetic two period crossover study of oral sumatriptan with or without anamorelin hydrochloride; type: in vivo; settings: both sexes, human, plasma, 25 mg/dose
Method: The study was a two period crossover study in 22 healthy, normal men and women ages 18-45 years, conducted in open label format. […] Subjects were fasted overnight with a seven day wash out period between periods. […] All samples were analyzed using a validated bioanalytical method (LC-MS-MS).

In the case of `CNS(=O)(=O)Cc1ccc2[nH]cc(CCN(C)C)c2c1` [Sumatriptan, 1-[3-(2-dimethylaminoethyl)-1H-indol-5-yl]-N-methyl-methanesulfonamide], the “time after administration until maximum blood concentrations are reached” value ([1]; during a migraine attack) is listed as 2.5 h, the “time after administration to reach maximum concentration in the plasma (average)” value ([1]; healthy adults) is listed as 2.0 h and the AUC(0-t) ([2]; plasma sumatriptan, sumatriptan succinate 25 mg oral tablet, alone or with anamorelin HCl 100 mg oral, fasted healthy subjects, N = 22, read-out: AUC 0-30, Mean) is listed as 2.53 ng·h/mL. It also gave an AUC(0-t) ([2]; plasma sumatriptan, sumatriptan succinate 25 mg oral tablet, alone or with anamorelin HCl 100 mg oral, fasted healthy subjects, N = 22, read-out: AUC 0-30, Median) of 2.56 ng·h/mL, a Cmax ([2]; plasma sumatriptan, sumatriptan succinate 25 mg oral tablet, alone or with anamorelin HCl 100 mg oral, fasted healthy subjects, N = 22, read-out: Cmax, Mean) of 20.3 ng/mL and a Cmax ([2]; plasma sumatriptan, sumatriptan succinate 25 mg oral tablet, alone or with anamorelin HCl 100 mg oral, fasted healthy subjects, N = 22, read-out: Cmax, Median) of 20.4 ng/mL. For the same compound, the Tmax ([2]; plasma sumatriptan, sumatriptan succinate 25 mg oral tablet, alone or with anamorelin HCl 100 mg oral, fasted healthy subjects, N = 22, read-out: Tmax, Mean (converted)) was 1.12 h, the Tmax ([2]; plasma sumatriptan, sumatriptan succinate 25 mg oral tablet, alone or with anamorelin HCl 100 mg oral, fasted healthy subjects, N = 22, read-out: Tmax, Median (converted)) was 0.883 h and the AUC(0-t) ([2]; read-out: AUC last, Mean) was 45.6 ng·h/mL.
